Test results: US12065494B2, “Combination therapy comprising an FGFR inhibitor and a Nectin-4 targeting agent” (Incyte Corporation, priority 2021, dated 2024)

Assays:
Nectin-4 [1] = experiment: RT112/84 in vivo Nectin-4 receptor density (xenograft, flow cytometry); conditions: RT112/84 tumor bearing NSG mice; pemigatinib 0.3 or 1 mg/kg oral, EV 3 mg/kg intravenous; tumors collected 4 h post dose
Protocol: The effect of combining pemigatinib plus EV (Padcev, Refdrug Inc.) on Nectin-4 receptor density was also assessed in vivo in the RT112/84 bladder cancer xenograft model (FIG. 2B) in 6 to 8 weeks old NSG mice (Jackson laboratories). Pemigatinib was suspended in 5% N,N-dimethyl acetamide (DMAC)+50 mM Citrate buffer in 0.5% methyl cellulose for oral administration and EV was suspended in saline for intravenous administration. Briefly, the left flanks of the mice were shaved the day prior to subcutaneous inoculation with 2×10^6 RT112/84 suspended in matrigel (Corning Life Sciences, Tewksbury, Mass.). On day 16, mice were dosed with (i) vehicle; (ii) 0.3 mg/kg of pemigatinib; (iii) 1 mg/kg of pemigatinib; (iv) 3 mg/kg of EV; (v) 0.3 mg/kg of pemigatinib and 3 mg/kg of EV; or (vi) 1 mg/kg of pemigatinib and 3 mg/kg of EV, and tumors were collected 4 h post dose.

ERK = experiment: RT112/84 in vivo pERK inhibition (tumor lysates, MSD); conditions: RT112/84 tumor bearing NSG mice; pemigatinib 1 mg/kg oral, EV 3 mg/kg intravenous; tumors collected 4 h post dose
Protocol: Tumors were then processed and levels of phospho ERK were assessed on tumor lysates by MSD (Mesoscale).

Nectin-4 [2] = experiment: RT112/84 in vitro Nectin-4 receptor density (flow cytometry); format: cell-based; conditions: RT112/84 cells; 100 nM pemigatinib, 100 nM EV or both; different time points after treatment
Protocol: The effect of combining pemigatinib plus enfortumab vedotin (“EV”) (Padcev, Refdrug Inc.) on Nectin-4 receptor density was assessed in vitro in the RT112/84 bladder cancer cell line. Briefly, RT112/84 cells were treated with either 100 nM pemigatinib, 100 nM EV, or the combination of both. The receptor density of Nectin-4 was then assessed by flow cytometry upon a LSRFortessa X-20 instrument (BD Biosciences) with Quantibrite phycoerythrin (PE) beads (BD Biosciences Cat No 340495) using an anti-Nectin-4 PE conjugated antibody (RnD Systems Cat No FAB2659) at different time points after treatment (FIG. 2A).

[3] = system: UM-UC-14 cancer xenograft model; experiment: UM-UC-14 xenograft model, tumor growth; format: in vivo, mice; conditions: single agent
[4] = system: RT112/84 bladder cancer xenograft model; experiment: RT112/84 xenograft model, tumor growth (6 groups); format: in vivo, mice
Protocol: The in vivo effect of combining pemigatinib plus EV (Padcev, Refdrug Inc.) was assessed in the RT112/84 bladder cancer (85061106, Sigma/ECACC, UK) xenograft model (FIG. 4) in 6 to 8 weeks old NSG mice (Jackson laboratories). Pemigatinib was suspended in 5% N,N-dimethyl acetamide (DMAC)+50 mM Citrate buffer in 0.5% methyl cellulose for oral administration and EV was suspended in saline for intravenous administration. Briefly, the left flank of the mice were shaved the day prior to subcutaneous inoculation with 2×10^6 RT112/84 suspended in matrigel (Corning Life Sciences, Tewksbury, Mass.). On day 7, tumor dimensions were measured by Vernier calipers, and volume estimated by the formula Volume=[L (long dimension)×W2 (short dimension)]/2. Mice were randomized into 6 groups of 10 mice of approximate mean volume (˜200 mm^3). Tumors were measured 3 times per week for the duration of the study. Starting day 7, mice were dosed with (i) vehicle; (ii) 0.3 mg/kg of pemigatinib; (iii) 1 mg/kg of pemigatinib; (iv) 3 mg/kg of EV; (v) 0.3 mg/kg of pemigatinib and 3 mg/kg of EV; or (vi) 1 mg/kg of pemigatinib and 3 mg/kg of EV. Pemigatinib was administered orally once daily (QD) for 10 days, while EV was dosed every 4 days (for a total of 2 doses).

[5] = pemigatinib 0.3 mg/kg oral QD for 10 days
[6] = pemigatinib 1 mg/kg oral QD for 10 days

## CCN1C(=O)N(c2c(F)c(OC)cc(OC)c2F)Cc2cnc3[nH]c(CN4CCOCC4)cc3c21 [pemigatinib, 3-(2,6-difluoro-3,5-dimethoxyphenyl)-1-ethyl-8-(morpholin-4-ylmethyl)-1,3,4,7-tetrahydro-2H-pyrrolo[3′,2′:5,6]pyrido[4,3-d]pyrimidin-2-one]
Nectin-4 [1]
  Nectin-4 receptor density in tumor cells: did not induce changes in Nectin-4 receptor density
ERK
  phosphorylation of ERK in tumor: decrease phosphorylation of ERK
Nectin-4 [2]
  Nectin-4 receptor density: did not induce changes in Nectin-4 receptor density
[3]; [5]
  therapeutic effect in delaying tumor growth vs vehicle: only pemigatinib 1 mg/kg treatment had a therapeutic effect
[3]; [6]
  therapeutic effect in delaying tumor growth vs vehicle: had a therapeutic effect in delaying tumor growth as single agent
[4]; [5]
  therapeutic effect in delaying tumor growth vs vehicle: all the treatments, with the exemption of pemigatinib 0.3 mg/kg, had a therapeutic effect
[4]; [6]
  therapeutic effect in delaying tumor growth vs vehicle: had a therapeutic effect in delaying tumor growth
